# Laboratory results as given in the supplement of paper PMC11208160.
# Assay: recombinant UMI read abundance after kanamycin selection (control-corrected) (log10(CPM+1)); higher = more efficient recombination; extreme values may be limits of the assay; sequences stand for … in AGTGCAGAGAAAATCGGCCAGTTTTCTCTGCCTGCAGTCCGCATGCCGTGGGACCCCTTGGGTTCTAACCTGTTGCCTAGATTTATGCAGCGGACTGCCTTTCTCCCAAAGTGATAAACCGG…AGGTTGGTTTCACT; site = the 11-nt donor
# Outline: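 Counts of recombinant UMIs were reported as log10(CPM+1). Before that, they were converted to CPM, averaged over replicates and scaled using control-derived factors. They came from PCR across the donor–target junction after Escherichia coli carrying the pair library and target plasmid was plated on IPTG (0.07 mM) plus kanamycin, or unselected, in two replicates each.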
# 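Further: IS621 bridge recombinase in Escherichia coli cells against a fixed T5 target plasmid.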
row,Sequence,recombinant UMI read abundance (log10)
1,GCCACGCCATGGACCGGTTTTCCCGGTAATCCGTATTTGAA (site GCCACGCCTTA),0.00688
2,GCCACGCCATGGACCGGTTTTCCCGGTAATCCGTATTTGAA (site GCCACGCCTTC),0.0229
3,GCCACGCCATGGACCGGTTTTCCCGGTAATCCGTATTTGAA (site GCCACGCCTTG),0
4,GCCACGCCATGGACCGGTTTTCCCGGTAATCCGTATTTGAA (site GCCACGCCTTT),0.0176
5,GCCACGCCATGGACCGGTTTTCCCGGTAATCCGTATTTGCA (site GCCACGCCTTA),0
6,GCCACGCCATGGACCGGTTTTCCCGGTAATCCGTATTTGCA (site GCCACGCCTTC),0.0237
7,GCCACGCCATGGACCGGTTTTCCCGGTAATCCGTATTTGCA (site GCCACGCCTTG),1.36
8,GCCACGCCATGGACCGGTTTTCCCGGTAATCCGTATTTGCA (site GCCACGCCTTT),0.0202
9,GCCACGCCATGGACCGGTTTTCCCGGTAATCCGTATTTGGA (site GCCACGCCTTA),0.00593
10,GCCACGCCATGGACCGGTTTTCCCGGTAATCCGTATTTGGA (site GCCACGCCTTC),0.0144
11,GCCACGCCATGGACCGGTTTTCCCGGTAATCCGTATTTGGA (site GCCACGCCTTG),0
12,GCCACGCCATGGACCGGTTTTCCCGGTAATCCGTATTTGGA (site GCCACGCCTTT),0.00923
13,GCCACGCCATGGACCGGTTTTCCCGGTAATCCGTATTTGTC (site GCCACGCCTAA),0
14,GCCACGCCATGGACCGGTTTTCCCGGTAATCCGTATTTGTC (site GCCACGCCTCA),0.015
15,GCCACGCCATGGACCGGTTTTCCCGGTAATCCGTATTTGTC (site GCCACGCCTGA),1.03
16,GCCACGCCATGGACCGGTTTTCCCGGTAATCCGTATTTGTC (site GCCACGCCTTA),0.0128
17,GCCACGCCATGGACCGGTTTTCCCGGTAATCCGTATTTGTG (site GCCACGCCTAA),0.0114
18,GCCACGCCATGGACCGGTTTTCCCGGTAATCCGTATTTGTG (site GCCACGCCTCA),0.0225
19,GCCACGCCATGGACCGGTTTTCCCGGTAATCCGTATTTGTG (site GCCACGCCTGA),0

row,Sequence,recombinant UMI read abundance (log10)
1,GCCACGCCATGGACCGGTTTTCCCGGTAATCCGTATTTGTG (site GCCACGCCTTA),0.0106
2,GCCACGTCATGGACCGGTTTTCCCGGTAATCCGTATTTGCA (site GCCACGTCTTG),2.76
3,GCCCACACATGGACCGGTTTTCCCGGTAATCCGTATTTGTA (site ACCCACACTTA),1.08
4,GCCCACACATGGACCGGTTTTCCCGGTAATCCGTATTTGTA (site CCCCACACTTA),1.37
5,GCCCACACATGGACCGGTTTTCCCGGTAATCCGTATTTGTA (site GCCCACACTTA),1.78
6,GCCCACACATGGACCGGTTTTCCCGGTAATCCGTATTTGTA (site TCCCACACTTA),1.02
7,GCCCACCCATGGACCGGTTTTCCCGGTAATCCGTATTTGTT (site GACCACCCTAA),0.0217
8,GCCCACCCATGGACCGGTTTTCCCGGTAATCCGTATTTGTT (site GCCCACCCTAA),0.051
9,GCCCACCCATGGACCGGTTTTCCCGGTAATCCGTATTTGTT (site GGCCACCCTAA),0.0315
10,GCCCACCCATGGACCGGTTTTCCCGGTAATCCGTATTTGTT (site GTCCACCCTAA),0.0135
11,GCCCACGCATGGACCGGTTTTCCCGGTAATCCGTATTTGGA (site GCCCACGCTTC),0.94
12,GCCCGAGCATGGACCGGTTTTCCCGGTAATCCGTATTTGGA (site GCCCGAGCTTC),0.73
13,GCCCGCACATGGACCGGTTTTCCCGGTAATCCGTATTTGTG (site GCCCGCACTCA),0.0672
14,GCCCGCTCATGGACCGGTTTTCCCGGTAATCCGTATTTGAG (site GCCCGCTCTCT),0.704
15,GCCCGTTCATGGACCGGTTTTCCCGGTAATCCGTATTTGAG (site GCCCGTTCTCT),2.23
16,GCCCTCCCATGGACCGGTTTTCCCGGTAATCCGTATTTGTG (site GCCCTCCCTCA),0.0428
17,GCCCTTTCATGGACCGGTTTTCCCGGTAATCCGTATTTGCT (site GCCCTTTCTAG),1.67
18,GCCGAACCATGGACCGGTTTTCCCGGTAATCCGTATTTGGG (site GCCGAACCTCC),0.0289
19,GCCGATGCATGGACCGGTTTTCCCGGTAATCCGTATTTGGC (site GCCGATGCTGC),0.846

row,Sequence,recombinant UMI read abundance (log10)
1,GCCGCGCCATGGACCGGTTTTCCCGGTAATCCGTATTTGTA (site GCCACGCCTTA),0.00924
2,GCCGCGCCATGGACCGGTTTTCCCGGTAATCCGTATTTGTA (site GCCCCGCCTTA),0.00531
3,GCCGCGCCATGGACCGGTTTTCCCGGTAATCCGTATTTGTA (site GCCGCGCCTTA),0.234
4,GCCGCGCCATGGACCGGTTTTCCCGGTAATCCGTATTTGTA (site GCCTCGCCTTA),0.18
5,GCCGCTCCATGGACCGGTTTTCCCGGTAATCCGTATTTGGT (site GCCGCTCCTAC),0.0147
6,GCCGGTCCATGGACCGGTTTTCCCGGTAATCCGTATTTGCA (site ACCGGTCCTTG),0
7,GCCGGTCCATGGACCGGTTTTCCCGGTAATCCGTATTTGCA (site CCCGGTCCTTG),0
8,GCCGGTCCATGGACCGGTTTTCCCGGTAATCCGTATTTGCA (site GCCGGTCCTTG),0
9,GCCGGTCCATGGACCGGTTTTCCCGGTAATCCGTATTTGCA (site TCCGGTCCTTG),0
10,GCCGTATCATGGACCGGTTTTCCCGGTAATCCGTATTTGCA (site ACAGTATCTTG),2.87
11,GCCGTATCATGGACCGGTTTTCCCGGTAATCCGTATTTGCA (site GCCGTATCTTG),2.22
12,GCCTAAACATGGACCGGTTTTCCCGGTAATCCGTATTTGGT (site GCCTAAACTAC),1.07
13,GCCTAATCATGGACCGGTTTTCCCGGTAATCCGTATTTGGC (site GCCTAATCTGC),0.963
14,GCCTATCCATGGACCGGTTTTCCCGGTAATCCGTATTTGAC (site GCCTATCCTGT),0
15,GCCTCGCCATGGACCGGTTTTCCCGGTAATCCGTATTTGGT (site GCCTCGCCTAC),0
16,GCCTCTACATGGACCGGTTTTCCCGGTAATCCGTATTTGCC (site GCCTCTACTGG),1.37
17,GCCTGGCCATGGACCGGTTTTCCCGGTAATCCGTATTTGCT (site GCCTGGCCTAG),0
18,GCCTGTGCATGGACCGGTTTTCCCGGTAATCCGTATTTGAC (site GCCTGTGCTGT),0.472
19,GCGAAAACATGGACCGGTTTTCCCGGTAATCCGTATTTGCA (site GCGAAAACTAG),0
